# Data as given in US20050282258A1 (priority 2004, published 2005).
# Read-outs that look alike come from different tables or passages of the source.
# Legend:
# yggA transcription = assay type: cell-based, Escherichia coli; conditions: for transcription of the yggA gene upon supplementation of the culture medium: strains carrying the wild-type argP gene; for Beta-galactosidase specific activity (units) in medium with 1 mM arginine / Beta-galactosidase specific activity (units) in medium with 1 mM lysine: glucose-minimal A medium, 37° C.
# [1] = test system: wild-type E. coli strain MC4100; test: Canavanine tolerance of strains, growth in glucose-minimal A medium; assay type: cell-based, Escherichia coli; conditions: scored after 24 hours at 37° C.
# [2] = strain GJ4748/pHYD956 (argR), Nil = 217
# [3] = strain MC4100/pHYD926/pHYD956 (argP-S94L), Nil = 1557
# [4] = strain MC4100/pHYD956, Nil = 20
smiles,measurement,setting,value
NC(=O)NCCC[C@H](N)C(=O)O [citrulline],transcription of the yggA gene upon supplementation of the culture medium,yggA transcription,induced
N=C(N)NCCC[C@H](N)C(=O)O [arginine],Beta-galactosidase specific activity (units) in medium with 1 mM arginine,yggA transcription; [2],424 units
same,Beta-galactosidase specific activity (units) in medium with 1 mM arginine,yggA transcription; [3],1514 units
same,Beta-galactosidase specific activity (units) in medium with 1 mM arginine,yggA transcription; [4],66 units
same,transcription of the yggA gene upon supplementation of the culture medium,yggA transcription,induced
NCCCC[C@H](N)C(=O)O [lysine],Beta-galactosidase specific activity (units) in medium with 1 mM lysine,yggA transcription; [2],29 units
same,Beta-galactosidase specific activity (units) in medium with 1 mM lysine,yggA transcription; [3],1616 units
same,Beta-galactosidase specific activity (units) in medium with 1 mM lysine,yggA transcription; [4],14 units
same,transcription of the yggA gene upon supplementation of the culture medium,yggA transcription,substantially repressed
N=C(N)NOCC[C@H](N)C(=O)O [canavanine],transcription of the yggA gene upon supplementation of the culture medium,yggA transcription,induced
same,growth of MC4100 (canavanine tolerance),[1]; 20 micrograms/ml of canavanine,resistant
same,growth of MC4100 (canavanine tolerance),[1]; 65 micrograms/ml of canavanine in the presence of uracil at 40 micrograms/ml,sensitive
